# Where “and” joins values, the source holds several entries; their conditions need not be identical. Equal values may be shown once.
# Key:
# [1] = system: 3 months stored dry soybean explants; experiment: Stored dry soybean explants, spectinomycin, pre-culture: TF; format: cell-based; settings: pMON107379
# Excerpt: TDZ and lipoic acid were both added to the inoculum and to the co-culture media (INO). The construct, pMON107379, was a conventional 2T vector comprising oriRi and aadA gene, and co-culture was done for 5 days.
# [2] = system: soybean explants; experiment: Transformation frequency using spectinomycin selection at different levels; format: cell-based, soybean (Glycine max)
# [3] = system: soybean explants; experiment: Explants on different levels of spectinomycin: GUS-expressing buds and shoots; format: cell-based, soybean (Glycine max); settings: for % explants with GUS+ shoots/buds / # Explants with GUS+ shoots/buds: 2 mg/L TDZ in co-culture; for # Explants with GUS+ shoots/buds: 25 explants assayed
# [4] = system: dry excised soybean explants; experiment: Dry soybean embryos, spectinomycin, whole regenerated explant with pre-culturing step: TF and event quality; format: cell-based; settings: for % quality events: 1-2 copies of GUS and aadA by Invader assay; for # Events produced / TF % / qTF %: spectinomycin 150 ppm; for Estimated mTF %: marker-free TF, events without the marker gene
# [5] = system: dry soybean explants; experiment: Dry soybean embryos, spectinomycin, liquid culture medium: TF with hydration conditions and liquid overlay timing; format: cell-based; settings: spectinomycin 150 ppm
# Excerpt: In these studies, explants were initially hydrated and eventually regenerated on WPM solid media with liquid overlay or WPM liquid medium as above. […] In liquid overlay treatment both solid and liquid culture media were used; liquid medium was dispensed over the top of explants as they were lying on solid medium at a specified time during tissue culture as identified in the Table 30. This was done as a type of media refreshment and avoids the need for transferring explants from old media to new media. In the control treatments, explants were surface plated on a solid WPM medium (Table 2).
# [6] = system: dry soybean explants; experiment: Transformation frequency of dry soybean explants using glyphosate or spectinomycin as selective agent; format: cell-based; settings: for % TF: dry soybean explants
# [7] = Total over all Spec levels of the experiment (1102: 25-250 mg/L; 1119: 50-250 mg/L)
# [8] = first study, spectinomycin selection 25-250 mg/L
structure (smiles),measurement,setting,value
"CN[C@@H]1[C@H](O)[C@H](NC)[C@H]2O[C@@]3(O)C(=O)C[C@@H](C)O[C@H]3O[C@@H]2[C@H]1O [Spectinomycin, spectinomycin]",R0 plants,"[1]; Fresh Dry Explants, no pre-culture step, 375 explants",24
same,TF,"[1]; Fresh Dry Explants, no pre-culture step",6.40%
same,R0 plants,"[1]; Fresh Dry Explants, pre-culture step 5 days 23° C. dark in BGM, 1008 explants",112
same,TF,"[1]; Fresh Dry Explants, pre-culture step 5 days 23° C. dark in BGM",11.11%
same,R0 plants,"[1]; Stored Dry Explants (3 months), no pre-culture step, 678 explants",71
same,TF,"[1]; Stored Dry Explants (3 months), no pre-culture step",10.47%
same,R0 plants,"[1]; Stored Dry Explants (3 months), pre-culture step 5 days 23° C. dark in BGM, 901 explants",129
same,TF,"[1]; Stored Dry Explants (3 months), pre-culture step 5 days 23° C. dark in BGM",14.32%
same,R0 plants,"[1]; Wet Excised explants, no pre-culture step, 263 explants",75
same,TF,"[1]; Wet Excised explants, no pre-culture step",28.52%
same,% TF (transformation frequency),[2]; Spec level 25 mg/L,19%
same,"Plants tested for transformation, Total",[2]; Spec level 25 mg/L,19
same,"Shoots harvested, % SF (shoot frequency)",[2]; Spec level 25 mg/L,46%
same,"Shoots harvested, Total",[2]; Spec level 25 mg/L,46
same,% TF (transformation frequency),[2]; Spec level 50 mg/L,14.7% and 22.2%
same,"Plants tested for transformation, Total",[2]; Spec level 50 mg/L,88 and 48
same,"Shoots harvested, % SF (shoot frequency)",[2]; Spec level 50 mg/L,24.8% and 46.8%
same,"Shoots harvested, Total",[2]; Spec level 50 mg/L,149 and 101
same,% TF (transformation frequency),[2]; Spec level 100 mg/L,15.7% and 12.6%
same,"Shoots harvested, % SF (shoot frequency)",[2]; Spec level 100 mg/L,20.5% and 20.6%
same,% TF (transformation frequency),[2]; Spec level 150 mg/L,26.1% and 18.3%
same,"Shoots harvested, % SF (shoot frequency)",[2]; Spec level 150 mg/L,35.1% and 20.8%
same,% TF (transformation frequency),[2]; Spec level 200 mg/L,14.4% and 12.5%
same,"Shoots harvested, % SF (shoot frequency)",[2]; Spec level 200 mg/L,28.2% and 15.2%
same,"Shoots harvested, Total",[2]; Spec level 200 mg/L,53 and 91
same,% TF (transformation frequency),[2]; Spec level 250 mg/L,19.5% and 16.3%
same,"Shoots harvested, % SF (shoot frequency)",[2]; Spec level 250 mg/L,27.5% and 18.0%
same,"Shoots harvested, Total",[2]; Spec level 250 mg/L,55 and 108
same,% TF (transformation frequency),[2]; [7],18.6% and 15.5%
same,"Shoots harvested, % SF (shoot frequency)",[2]; [7],33.3% and 19.9%
same,"Shoots harvested, Total",[2]; [7],330 and 596
same,average transformation frequency,[2]; [8],18.6%
same,"transformation frequency, range",[2]; [8],12.6-26.1%
same,plants later shown to be transformed,"[2]; of the first 32 plants tested to confirm transformation, one escape",31
same,% explants with GUS+ shoots/buds,[3]; spectinomycin level 25 (mg/L),52%
same,# Explants with GUS+ shoots/buds,[3]; spectinomycin level 25 (mg/L),13
same,% explants with GUS+ shoots/buds,[3]; spectinomycin level 50,72%
same,# Explants with GUS+ shoots/buds,[3]; spectinomycin level 50,18
same,% explants with GUS+ shoots/buds,[3]; spectinomycin level 100,76%
same,# Explants with GUS+ shoots/buds,[3]; spectinomycin level 100,19
same,% explants with GUS+ shoots/buds,[3]; spectinomycin level 150,72%
same,# Explants with GUS+ shoots/buds,[3]; spectinomycin level 150,18
same,% explants with GUS+ shoots/buds,[3]; spectinomycin level 200,80%
same,# Explants with GUS+ shoots/buds,[3]; spectinomycin level 200,20
same,% explants with GUS+ shoots/buds,[3]; spectinomycin level 250,80%
same,# Explants with GUS+ shoots/buds,[3]; spectinomycin level 250,20
same,explants that developed GUS-positive buds and shoots,"[3]; within two weeks on selective medium, about 22 DAI, TDZ-treated explants",Up to 80%
same,% quality events,"[4]; Dry Excised - 2T/OriRi, 14 events assayed",28.6%
same,# Events produced,"[4]; Dry Excised - 2T/OriRi, 161 explants",15
same,Estimated mTF %,[4]; Dry Excised - 2T/OriRi,0.45%
same,TF %,[4]; Dry Excised - 2T/OriRi,9.32 +/− 7.38%
same,qTF %,[4]; Dry Excised - 2T/OriRi,2.5%
same,% quality events,"[4]; Dry Excised - 2T/OriV, 32 events assayed",21.9%
same,# Events produced,"[4]; Dry Excised - 2T/OriV, 260 explants",34
same,Estimated mTF %,[4]; Dry Excised - 2T/OriV,0.62%
same,TF %,[4]; Dry Excised - 2T/OriV,13.1 +/− 0.17%
same,qTF %,[4]; Dry Excised - 2T/OriV,2.7 +/− 0.23%
same,% quality events,"[4]; Pre-cultured Dry - 2T/OriRi, 64 events assayed",20.3%
same,# Events produced,"[4]; Pre-cultured Dry - 2T/OriRi, 336 explants, pre-culture 5 days 23° C. dark in BGM",66
same,Estimated mTF %,[4]; Pre-cultured Dry - 2T/OriRi,0.7%
same,TF %,"[4]; Pre-cultured Dry - 2T/OriRi, pre-culture 5 days 23° C. dark in BGM",19.64 +/− 1.97%
same,qTF %,[4]; Pre-cultured Dry - 2T/OriRi,3.9 +/− 1.22%
same,% quality events,"[4]; Pre-cultured Dry - 2T/OriV, 311 events assayed",24.4%
same,# Events produced,"[4]; Pre-cultured Dry - 2T/OriV, 1641 explants, pre-culture 5 days 23° C. dark in BGM",319
same,Estimated mTF %,[4]; Pre-cultured Dry - 2T/OriV,1.1%
same,TF %,"[4]; Pre-cultured Dry - 2T/OriV, pre-culture 5 days 23° C. dark in BGM",19.4 +/− 5.42%
same,qTF %,[4]; Pre-cultured Dry - 2T/OriV,4.6 +/− 1.35%
same,TF % (mean of 3 repeats),"[5]; Treatment 1-Control, hydration medium INO, incubation with Agrobacteria 0 minutes, surface plated on solid WPM",3.10%
same,TF % (mean of 3 repeats),"[5]; Treatment 2, hydration medium BGM w/o cefotaxime, incubation with Agrobacteria 0 minutes",14.67%
same,TF % (mean of repeats),"[5]; Treatment 2, no liquid overlay, Oasis Wedge transfer for regeneration",14.67%
same,TF % (mean of 3 repeats),"[5]; Treatment 3, hydration medium BGM w/o cefotaxime, incubation with Agrobacteria 15 minutes",15.45%
same,TF % (mean of repeats),"[5]; Treatment 3, liquid overlay 3 weeks post inoculation, 5 mLs on solid WPM, Oasis Wedge transfer",15.45%
same,TF % (mean of 3 repeats),"[5]; Treatment 4, hydration medium BGM w/o cefotaxime, incubation with Agrobacteria 30 minutes",18.50%
same,TF % (mean of repeats),"[5]; Treatment 4, liquid overlay 3 weeks post inoculation, 10 mLs on solid WPM, Oasis Wedge transfer",18.50%
same,TF % (mean of 3 repeats),"[5]; Treatment 5, hydration medium INO, incubation with Agrobacteria 0 minutes",13.98%
same,TF % (mean of repeats),"[5]; Treatment 5, liquid overlay 4 weeks post inoculation, 5 mLs on solid WPM, Oasis Wedge transfer",13.98%
same,TF % (mean of 3 repeats),"[5]; Treatment 6, hydration medium INO, incubation with Agrobacteria 15 minutes",9.64%
same,TF % (mean of repeats),"[5]; Treatment 6, liquid overlay 4 weeks post inoculation, 10 mLs on solid WPM, Oasis Wedge transfer",9.64%
same,TF % (mean of 3 repeats),"[5]; Treatment 7, hydration medium INO, incubation with Agrobacteria 30 minutes",13.79%
same,TF % (mean of repeats),"[5]; Treatment Control-1, liquid overlay NA, overlay volume None, no Oasis Wedge transfer",8.00%
same,transformation frequencies,"[6]; 150 ppm spectinomycin, dry excised soybean embryos, 1 hr hydration in INO, 4 days co-culture, two different studies",25.05% and 19.27%
same,% TF,[6]; Spectinomycin 25 ppm in regeneration medium,4.66%
same,% TF,[6]; Spectinomycin 50 ppm in regeneration medium,4.24%
same,% TF,[6]; Spectinomycin 100 ppm in regeneration medium,6.34%
same,% TF,[6]; Spectinomycin 200 ppm in regeneration medium,5.99%

# From patent US20150113683A1, “METHODS FOR PLANT TRANSFORMATION USING SPECTINOMYCIN SELECTION” (Monsanto Technology LLC, priority 2007, published 2015)
